Assays:
NCI-H1975 = test: Cytotoxicity against human NCI-H1975 cells assessed as decrease in cell viability incubated for 72 hrs by CellTiter-Glo assay; format: functional, cell-based; conditions: NCI-H1975, 72 h
[1] = biological target: T1, Myc proto-oncogene protein (Homo sapiens, UniProt P01106); test: Inhibition of Myc (unknown origin) expressed in HEK293T cells incubated for 16 hrs by firefly/renilla luciferase reporter gene assay; format: cell-based
Lymphoma cell line = test: Cytotoxicity against mouse E-mu-Myc lymphoma cells assessed as decrease in cell viability incubated for 72 hrs by CellTiter-Glo assay; format: functional, cell-based
NAMALVA = test: Cytotoxicity against human NAMALWA cells assessed as decrease in cell viability incubated for 72 hrs by CellTiter-Glo assay; format: functional, cell-based
[2] = Cytotoxicity against human KLP1 cells assessed as decrease in cell viability incubated for 72 hrs by CellTiter-Glo assay; format: functional, cell-based
[3] = biological target: T1, Myc proto-oncogene protein; test: Binding affinity to Myc in cell lysates (unknown origin) assessed as c-Myc levels at 5 uM incubated using compound 55 beads by Western blotting based pull down assay relative to control; format: subcellular; conditions: Lysate
[4] = Cytotoxicity against human SNUC5 cells assessed as decrease in cell viability incubated for 72 hrs by CellTiter-Glo assay; format: functional, cell-based
[5] = biological target: T1, Myc proto-oncogene protein; test: Binding affinity to Myc in cell lysates (unknown origin) assessed as c-Myc levels at 5 uM incubated using compound 19 beads by Western blotting based pull down assay relative to control; format: subcellular; conditions: Lysate
[6] = biological target: T1, Myc proto-oncogene protein; test: Binding affinity to Myc in cell lysates (unknown origin) assessed as c-Myc levels at 1 uM incubated using compound 19 beads by Western blotting based pull down assay relative to control; format: subcellular; conditions: Lysate
HeLa = test: Cytotoxicity against human HeLa cells assessed as decrease in cell viability incubated for 72 hrs by CellTiter-Glo assay; format: functional, cell-based

T1 sequence (P01106 whole entry): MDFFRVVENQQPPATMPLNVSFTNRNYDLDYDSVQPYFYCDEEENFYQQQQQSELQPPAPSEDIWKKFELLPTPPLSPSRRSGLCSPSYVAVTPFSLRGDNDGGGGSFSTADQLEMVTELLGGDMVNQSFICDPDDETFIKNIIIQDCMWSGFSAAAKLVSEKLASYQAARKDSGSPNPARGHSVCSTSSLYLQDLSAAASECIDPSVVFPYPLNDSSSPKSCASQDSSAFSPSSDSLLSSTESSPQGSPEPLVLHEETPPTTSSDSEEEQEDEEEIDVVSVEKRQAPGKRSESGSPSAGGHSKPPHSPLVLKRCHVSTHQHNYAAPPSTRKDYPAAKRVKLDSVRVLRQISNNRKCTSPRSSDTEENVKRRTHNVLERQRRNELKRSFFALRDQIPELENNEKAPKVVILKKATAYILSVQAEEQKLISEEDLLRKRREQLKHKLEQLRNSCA

## O=C(CCCC[C@@H]1SC[C@@H]2NC(=O)N[C@@H]21)NCCCN1C(=O)S/C(=C\c2ccc(Sc3nc4ccccc4[nH]3)o2)C1=O
NCI-H1975
  IC50: > 50 µM

## COC(=O)c1ccc(Sc2nc3ccccc3[nH]2)o1
[1]
  IC50: Not Active

## O=C1NC(=O)C(=Cc2ccc(Sc3nc4ccccc4[nH]3)o2)C(=O)N1
[1]
  IC50: Not Active

## CC(C)N1C(=O)S/C(=C\c2ccc(-c3nc4ccccc4[nH]3)o2)C1=O
Lymphoma cell line
  IC50: > 50 µM
NCI-H1975
  IC50: 45.3 µM
NAMALVA
  IC50: 20.1 µM

## O=C(O)c1ccc(Sc2nc3ccccc3[nH]2)o1
[1]
  IC50: Not Active

## O=C(c1ccc(Sc2nc3ccccc3[nH]2)o1)N1CCOCC1
[1]
  IC50: Not Active

## O=C(O)CN1C(=O)S/C(=C\c2ccc(Sc3nc4ccccc4[nH]3)o2)C1=O
[1]
  IC50: Not Active

## CC(C)N1C(=O)S/C(=C\c2ccc(Sc3nc4ccccc4[nH]3)o2)C1=O
[2]
  IC50: 4.64 µM
[3]
  Activity: 52%
[4]
  IC50: 11.7 µM
[5]
  Activity: 73 to 84%
NCI-H1975
  IC50: 2.71 to 24.9 µM
[6]
  Activity: 91%
NAMALVA
  IC50: 17.3 to 21.1 µM
HeLa
  IC50: 3.32 µM

— ChEMBL document CHEMBL4418492, “Myc modulators and uses thereof” (2018)
